Here are results for four molecules from patent US12162878B2 (HINOVA PHARMACEUTICALS INC., priority 2018, dated 2024).

For assay [1], the system named is CWR22RV1 cells. As to the kind of experiment: Inhibition of proliferation of CWR22RV1 cells (CCK-8). The assay is classed as cell-based, human. As to conditions: Homo sapiens, CWR22Rv1, 144 h, 6 days. The gist of the method:
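Cells seeded at 1500/well, cultured overnight, then exposed to compounds in 3-fold dilutions (9 concentrations from 10 μM top final, 0.1% DMSO) for 6 days at 37 °C. Viability read by CCK-8 absorbance at 450 nm after 2.5 h; IC50 from dose-response inhibition fit.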

The subject of assay [2] is MDA-MB-231 cells. As to the kind of experiment: Inhibition of proliferation of MDA-MB-231 cells (CCK-8). The assay is classed as cell-based, human. Conditions: for IC50: Homo sapiens, 144 h, 6 days, CCK-8. The protocol: • MDA-MB-231 cell line (Cell Bank of Chinese Academy of Sciences, TCHu104) • FBS (Gibco, Cat. No. 10099-141) • 0.01M PBS (Biosharp, Cat. No. 162262) • RIPM1640 (Hyclone, Cat. No. 308090.01) • Penicillin-Streptomycin (Hyclone, Cat. No. SV30010) • Cell counting kit-8 (Signalway Antibody, Cat. No. CP002) • DMSO (Sigma, Cat. No. D5879) • Centrifuge Tube, 15 ml (Excell Bio, Cat. No. CS015-0001) • Cell Culture Dish, (Excell Bio, Cat. No. CS016-0128) • 96-well cell culture cluster (Corning, Cat. No. 3599) 3. Experimental Method
1) MDA-MB-231 cells were subcultured in cell culture media, and the cells in good growth condition were seeded in a 96-well plate, 80 μL for each well, thus the number of cells per well was 1500, then the plate was cultured overnight in a 37° C., 5% CO2 cell incubator.
2) The drug was prepared with dimethyl sulfoxide (DMSO) as a 10 mM stock solution. Prior to use, the solution was diluted 3 times with DMSO, and then diluted with a 3-fold gradient to obtain 9 concentration gradients. Then, each concentration of the compound was further diluted 200 times with the culture media (to ensure that DMSO concentration in the culture system was 0.1%), 2 repeat wells for each concentration. The diluted solution of each compound (20 μL) was added to the cell culture well (with a final concentration of 10 μM, 3.3 μM, 1.1 μM . . . ), and shaken gently for mixing. In addition, three negative control wells containing only cells and three blank control wells containing only culture medium (20 μL DMSO diluted 200 times with culture medium being added to six wells) were included.
(1) After culturing for 6 days, 10 μL CCK-8 was added to each well and cultured for additional 2.5 h in a 37° C., 5% CO2 cell incubator.
(2) The absorbance (OD value) at 450 nm was measured with a multifunctional microplate reader.
(3) The data was analyzed by the Dose-response-inhibition equation in the software GraphPad Prism6, and the IC50 value was obtained.

Assay [3] addresses BRD2(1,2) (Homo sapiens (Human), UniProt P25440). The assay is described as follows: AlphaScreen binding of compounds on BRD2 (D1+D2). As to conditions: read-out: IC50 against BRD2(1,2). From the text: Homogeneous time-resolved fluorescence technology (HTRF) was used to determine the binding effect of compounds on BRD4 (D1+D2) and BRDT (D1) proteins, as well as AlphaScreen method was used to detect the binding effect of compounds on BRD2 (D1+D2) and BRD3 (D1+D2) proteins.
The compounds were screened in vitro, and each compound was serially diluted to 10 concentrations. Four proteins BRD4 (D1+D2), BRDT (D1), BRD2 (D1+D2) and BRD3 (D1+D2) were chosen to determine the IC50 values of compounds (see Table 1).
4. Compound treatment: The test compound was dissolved in dimethyl sulfoxide (DMSO), and the storage concentration was 10 mM.
6. AlphaScreen Detection Procedures:
1) Preparing One-Fold Concentration of Detection Buffer
One-fold concentration of detection buffer was prepared (Improved HEPES buffer)
2) Gradient Dilution of Compounds
Echo automatic sampler was used to transfer the compound to the detection plate for gradient dilution, so that the final concentration of dimethyl sulfoxide was 0.1%.
3) Preparation of Protein Solution
The protein was dissolved in one-fold concentration of detection buffer.
4) Preparation of Substrate Solution
The peptide was dissolved in one-fold concentration of detection buffer to prepare the substrate solution.
5) 5 μL protein solution was transferred to the detection plate, and one-fold concentration of detection buffer (5 μL) was placed in the negative control wells.
6) The plate was incubated for 15 min at room temperature.
7) 5 μL substrate solution was added to each well to start the reaction.
8) The plate was incubated for additional 60 min at room temperature.
9) Preparation of acceptor solution and donor solution in one-fold concentration of assay buffer Acceptor solution (15 μL) and donor solution (15 μL) were respectively added, and then incubated at room temperature for 60 min and protected against exposure to light.
10) The endpoint was read in EnSpire and Alpha mode.
The experimental data were recorded in an Excel file and equation (1) was used to get the inhibition rate. Inh%=(Max−Signal)/(Max−Min)*100 Equation (1):
The obtained data were input into GraphPad software, and equation (2) was used to obtain the IC50 value. Y=Bottom+(Top−Bottom)/(1+10^((Log IC50−X)*Hill Slope)) Formula (2): […]
Wherein, Y axis was the inhibition rate, and the X axis was the compound concentration.

BRD2(1,2), sequence (P25440 65-459): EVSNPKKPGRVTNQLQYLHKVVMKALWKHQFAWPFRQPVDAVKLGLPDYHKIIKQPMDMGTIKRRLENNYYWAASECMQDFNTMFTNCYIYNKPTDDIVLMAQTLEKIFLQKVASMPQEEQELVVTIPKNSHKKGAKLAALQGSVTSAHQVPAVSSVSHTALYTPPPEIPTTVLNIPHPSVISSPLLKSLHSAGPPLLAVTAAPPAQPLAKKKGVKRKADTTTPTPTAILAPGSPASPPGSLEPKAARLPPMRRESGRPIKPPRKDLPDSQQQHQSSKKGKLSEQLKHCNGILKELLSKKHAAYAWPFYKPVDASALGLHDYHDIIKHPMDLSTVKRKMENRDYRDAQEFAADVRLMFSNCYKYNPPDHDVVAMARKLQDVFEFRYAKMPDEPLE

On to `[2H]C([2H])([2H])n1cc(-c2cc(NS(=O)(=O)CC)ccc2N2CCC3(CC2)CC3)c2cc[nH]c2c1=O` [Compound 41], for which the figures for the IC50 in assay [1], in assay [2] and in assay [3] were 5 nM, 7540 nM and 2.3 nM, respectively.
`[2H]C([2H])([2H])n1cc(-c2cc(S(=O)(=O)CC)ccc2N2CCC3(CC3)C2)c2cc[nH]c2c1=O` [Compound 55, 4-(5(ethylsulfonyl)-2-(5-aza-spiro[2.4]heptan-5-yl)phenyl)-6-trideuteromethyl-1H-pyrrolo[2,3-c]pyridin-7(6H)-one]: the results for the IC50 in assay [1] and in assay [2] were 21 nM and 749 nM, respectively.
For the molecule `[2H]C([2H])([2H])n1cc(-c2cc(S(C)(=O)=O)c(F)cc2N2CCC3(CC2)CC3(F)F)c2cc[nH]c2c1=O` [Compound 219, 4-(2-(1,1-difluoro-6-aza-spiro[2.5]octan-6-yl)-4-fluoro-5-(methylsulfonyl)phenyl)-6-trideuteromethyl-1H-pyrrolo[2,3-c]pyridin-7(6H)-one], the results for the IC50 in assay [1] and in assay [3] were 7.1 nM and 1.8 nM, respectively.
For the molecule `[2H]C([2H])([2H])n1cc(-c2cc(S(C)(=O)=O)ccc2N2CCC3(CC2)CC3(F)F)c2cc[nH]c2c1=O` [Compound 184, 4-(2-(1,1-difluoro-6-aza-spiro[2.5]octan-6-yl)-5-(methylsulfonyl)phenyl)-6-trideuteromethyl-1H-pyrrolo[2,3-c]pyridin-7(6H)-one], the IC50 in assay [1] turned out to be 8.1 nM; in assay [2] it was 26 nM; in assay [3], 2 nM. Besides, the “inhibitory action on MDA-MB-231 cells (in words)” value in assay [2] was “effective inhibitory action”.
